Where two headings read alike, the source gives them in different places.

Experiment [1] has as its system α-glucosidase (the present enzyme) from Bacillus sp. KS-108a (FERM BP-5337). The format is biochemical. The settings on record: for effect of treatment with inhibitor on the enzyme (in words): 22 mM inhibitor stock. On the procedure:
(§1) First, 0.25 ml of Solution 1 and 0.5 ml of Solution 2 were mixed and pre-incubated at 37° C. for 5 minutes, and then the solution was mixed with 0.25 ml enzyme solution (about 0.005 to 0.03 U/ml) and reacted accurately for 15 minutes at 37° C.
(§2) Then, the reaction was stopped by adding 1 ml of Solution 3 to the reaction solution and the paranitrophenol thus formed was colored. This sample was measured for absorbance at 400 nm in a spectrophotometer (U-2000A, Hitachi Ltd.).
The effect of treatment with various inhibitors was evaluated in the following manner.
0.1 ml of 0.0667 mg/ml of the present enzyme in 100 mM HEPES-NaOH buffer, pH 7.0 containing 0.2% BSA was added to 0.01 ml of 22 mM inhibitor (1.1% in the case of a surfactant as inhibitor) and incubated at 25° C. for 1 hour. Then, the sample was diluted 100-fold with 10 mM potassium phosphate buffer (pH 7.0) containing 0.2% BSA, and the remaining activity was determined in the same manner as above in titer measurement.

For experiment [2] the test system is unchanged. The experiment in a line: Km value by Lineweaver-Burk plotting. The format is biochemical. As to conditions: pH 7.0, 37° C., read-out: Km (PNPG as substrate). The protocol:
The measurement of the titer of the present enzyme was carried out in the following manner. The amount of the enzyme causing 1 μ mol paranitrophenol per minute to be released from PNPG was assumed as 1 U of the enzyme. (Preparation of a substrate solution, a buffer, a reaction terminating solution, and an enzyme diluent)
as §1, §2

[3] abbreviates: 0.01 ml of 22 mM inhibitor added to 0.1 ml enzyme in 100 mM HEPES-NaOH pH 7.0 with 0.2% BSA, 25° C., 1 hour, then diluted 100-fold, activity on PNPG, control = 100.

Consider `O=C(O)c1cc[c]([Hg][Cl])cc1` [PCMB, p-chloromercuribenzoic acid], for which the “remaining activity (%)” value in experiment [1] (setting [3]) is 97.7%. Moreover, the “effect of treatment with inhibitor on the enzyme (in words)” value in experiment [1] (25° C., 1 hour) was “not affected”.

Broadly, the Km is the substrate concentration at which the rate is half of its maximum. Regarding `O=[N+]([O-])c1ccc(O[C@H]2O[C@H](CO)[C@@H](O)[C@H](O)[C@H]2O)cc1` [PNPG, paranitrophenyl-α-D-glucopyranoside], the Km in experiment [2] was 55 µM.

Turning to `N[C@@H](CCC(=O)N[C@@H](CS)C(=O)NCC(=O)O)C(=O)O` [glutathione], the “remaining activity (%)” value in experiment [1] (pH 7) was 102.5%.

In the case of `OCCS` [2-mercaptoethanol], in experiment [1] (setting [3]), the “remaining activity (%)” value amounted to 99.6%.

With `O=C(O)c1ccccc1[N+](=O)[O-]` [2-nitrobenzoic acid], the “remaining activity (%)” value in experiment [1] (setting [3]) is reported as 102.7%.

Take `O[C@H](CS)[C@H](O)CS` (racemic) [dithiothreitol]: in experiment [1] (setting [3]), the “remaining activity (%)” value worked out at 105.4%.

For the molecule `CCN1C(=O)C=CC1=O` [N-ethylmaleimide], the “remaining activity (%)” value in experiment [1] (setting [3]) is on record as 107.5%. In experiment [1] (25° C., 1 hour), the “effect of treatment with inhibitor on the enzyme (in words)” value is on record as “not affected”.

On to `O=C(O)CN(CCN(CC(=O)O)CC(=O)O)CC(=O)O` [EDTA-2Na], for which the “remaining activity (%)” value in experiment [1] (pH 7) was 106.4%.

For the molecule `[N-]=[N+]=[N-]` [sodium azide], the “remaining activity (%)” value in experiment [1] (setting [3]) was 105.0%.

On to `O=C(O)CI` [monoiodoacetic acid], for which the “remaining activity (%)” value in experiment [1] (pH 7) is on record as 98.5%.

In the case of `c1cnc2c(c1)ccc1cccnc12` [o-phenanthroline], the “remaining activity (%)” value in experiment [1] (setting [3]) is listed as 99.4%.

These data come from US5827720A, “α-glucosidase, and a process for producing the same” (priority 1995, dated 1998).
